These results are taken from US4855320A, “5-arylalkyl-4-alkoxy-2(5H)-furanones, intermediates and processes for the preparation thereof and medicaments containing them” (Dr. Willmar Schwabe GmbH & Company, priority 1986, dated 1989).

For this assay, the system named is maximum electroshock spasm (MES) in male mice (NMRI). Put plainly: MES test (maximum electroshock spasm), inhibition of the extensor spasm. Format: in vivo. The note with it: mice; for ED50: oral, 1 hour after administration, read-out: ED 50 in the MES test.
The mark [1] stands for this setting: Mus musculus, po, 100 mg/kg p.o., 1 hr., % of animals protected 100% against the extensor spasm, read-out: protective action after 1 hr. (MES test).
Setting [2] is: Mus musculus, po, 50 mg/kg p.o., 1 hr., read-out: protective action after 1 hr. (MES test).

`COC1=CC(=O)O[C@H]1[C@H](O)c1cccc(C(F)(F)F)c1` (relative stereo) [Example 72, threo-4-methoxy-5-(3-trifluoromethylphenylhydroxymethyl)-2(5H)-furanone]: under setting [1], the responders at 100 mg/kg was found to be 80%.

Turning to `COC1=CC(=O)O[C@H]1[C@H](O)c1ccccc1[N+](=O)[O-]` (relative stereo) [Example 74, threo-4-methoxy-5-(2-nitrophenylhydroxymethyl)-2(5H)-furanone], the responders at 100 mg/kg under setting [1] worked out at 100%.

On to `COC1=CC(=O)O[C@H]1[C@H](O)c1ccccc1C(F)(F)F` (relative stereo) [Example 71, threo-4-methoxy-5-(2-trifluoromethylphenylhydroxymethyl)-2-(5H)-furanone], for which the responders at 100 mg/kg under setting [1] was determined as 100%.

For the compound `COC1=CC(=O)O[C@H]1[C@H](O)c1ccc(Cl)c(Cl)c1` (relative stereo) [Example 83, threo-5-(3,4-dichlorophenylhydroxymethyl)-4-methoxy-2(5H)-furanone], the responders at 100 mg/kg under setting [1] came out at 50%.

For the compound `COC1=CC(=O)O[C@H]1[C@H](O)c1cccc(Br)c1` (relative stereo) [Example 69, threo-5-(3-bromophenylhydroxymethyl)-4-methoxy-2(5H)-furanone], the responders at 100 mg/kg under setting [1] worked out at 70%. The ED50 (Mus musculus) was determined as 93 mg/kg.

Consider `CCOC1=CC(=O)O[C@H]1[C@H](O)c1ccc(Cl)cc1Cl` (relative stereo) [Example 80, threo-5-(2,4-dichlorophenylhydroxymethyl)-4-ethoxy-2(5H)-furanone], for which, under setting [1], the responders at 100 mg/kg amounted to 90%.

In the case of `CCOC1=CC(=O)O[C@H]1[C@H](OC)c1ccc(Cl)cc1Cl` (relative stereo) [Example 106, threo-4-Ethoxy-5-[methoxy-(2,4-dichlorophenyl)-methyl]-2(5H)-furanone], the responders at 100 mg/kg under setting [1] worked out at 30%.

In the case of `COC1=CC(=O)O[C@H]1[C@H](OC)c1ccc(Cl)cc1Cl` (relative stereo) [Example 111, threo-4-methoxy-5-[methoxy-(2,4-dichlorophenyl)-methyl]-2(5H)-furanone], the responders at 100 mg/kg under setting [1] turned out to be 100%.

`COC1=CC(=O)O[C@H]1[C@H](OC)c1cc(Cl)ccc1Cl` (relative stereo) [Example 112, threo-4-methoxy-5-[methoxy-(2,5-dichlorophenyl)-methyl]-2(5H)-furanone]: under setting [1], the responders at 100 mg/kg came out at 100%.

On to `CCOC1=CC(=O)O[C@H]1[C@H](O)c1ccccc1Cl` (relative stereo) [Example 66, threo-5-(2-chlorophenylhydroxymethyl)-4-ethoxy-2(5H)-furanone], for which the responders at 100 mg/kg under setting [1] was determined as 100%.

In the case of `CCCOC1=CC(=O)O[C@H]1[C@H](O)c1ccccc1Cl` (relative stereo) [Example 99, threo-5-(2-chlorophenylhydroxymethyl)-4-propoxy-2-(5H)-furanone], the responders at 100 mg/kg under setting [1] was 90%.

As for `COCO[C@H](c1ccccc1Br)[C@@H]1OC(=O)C=C1OC` (relative stereo) [Example 118, threo-4-methoxy-5-[methoxymethoxy-(2-bromophenyl)-methyl]-2(5H)-furanone], the responders at 100 mg/kg under setting [1] was 100%.

As for `COC1=CC(=O)O[C@H]1[C@H](O)c1cc(C(F)(F)F)ccc1Cl` (relative stereo) [Example 86], the responders at 50 mg/kg under setting [2] came to 100%.

As for `COC1=CC(=O)O[C@H]1[C@H](O)c1ccccc1Br` (relative stereo) [Example 68, threo-5-(2-bromophenylhydroxymethyl)-4-methoxy-2(5H)-furanone], the responders at 100 mg/kg under setting [1] was 100%. Besides, for the setting “Mus musculus”, the ED50 is 23.5 mg/kg.

In the case of “threo-5-[1'-ethoxypropoxy-(2-chlorophenyl)-methyl]-4-methoxy-2-(5H)-furanone [Example 122]”, the “protective action after 1 hr. (MES test)” value (50 mg/kg p.o., 1 hr.) stood at 100%.

In the case of `COC1=CC(=O)O[C@H]1[C@H](OC)c1ccccc1Br` (relative stereo) [Example 124, threo-4-methoxy-5-[methoxy-(2-bromophenyl)-methyl]-2(5H)-furanone], the responders at 50 mg/kg under setting [2] stood at 100%.

Turning to `COC1=CC(=O)O[C@H]1[C@H](O)c1cccc(Cl)c1` (relative stereo) [Example 98, threo-5-(3-chlorophenylhydroxymethyl)-4-methoxy-2(5H)-furanone], the responders at 100 mg/kg under setting [1] was 25%. Moreover, the ED50 (Mus musculus) turned out to be 84.5 mg/kg.

On to `COC1=CC(=O)O[C@H]1[C@H](O)c1ccc(Br)cc1` (relative stereo) [Example 100, threo-5-(4-bromophenylhydroxymethyl)-4-methoxy-2(5H)-furanone], for which the responders at 100 mg/kg under setting [1] amounted to 100%. Under “Mus musculus”, the ED50 was 67 mg/kg.

`COC1=CC(=O)O[C@H]1[C@H](O)CCc1ccccc1` (relative stereo) [Example 105, threo-4-methoxy-5-(α-hydroxy-γ-phenylpropyl)-2(5H)-furanone]: the responders at 100 mg/kg under setting [1] was found to be 12.5%.

Regarding `COC1=CC(=O)O[C@H]1[C@H](O)c1cc(Cl)cc(Cl)c1` (relative stereo) [Example 84, threo-5-(3,5-dichlorophenylhydroxymethyl)-4-methoxy-2(5H)-furanone], the responders at 100 mg/kg under setting [1] was 70%.

Turning to `COCO[C@H](c1ccccc1F)[C@@H]1OC(=O)C=C1OC` (relative stereo) [Example 115, threo-4-methoxy-5-[methoxymethoxy-(2-fluorophenyl)-methyl]2(5H)-furanone], under setting [1], the responders at 100 mg/kg is 100%.

For `COC1=CC(=O)O[C@H]1[C@H](O)c1cccc(F)c1` (relative stereo) [Example 96, threo-5-(3-fluorophenylhydroxymethyl)-4-methoxy-2-(5H)-furanone], the responders at 100 mg/kg under setting [1] is 62.5%. Further, the ED50 (Mus musculus) was found to be 74 mg/kg.

With `CCOC1=CC(=O)O[C@H]1[C@H](O)c1cc(Cl)ccc1Cl` (relative stereo) [Example 82, threo-5-(2,5-dichlorophenylhydroxymethyl)-4-ethoxy-2(5H)-furanone], the responders at 150 mg/kg (Mus musculus, po, 150 mg/kg p.o., 1 hr., read-out: protective action after 1 hr. (MES test)) was found to be 90%.

For the compound `COCO[C@H](c1ccccc1C)[C@@H]1OC(=O)C=C1OC` (relative stereo) [Example 116, threo-4-methoxy-5-[methoxymethoxy-(2-methylphenyl)-methyl]-2(5H)-furanone], the responders at 100 mg/kg under setting [1] was 70%.

For the compound `COC1=CC(=O)O[C@H]1[C@H](O)c1ccccc1C` (relative stereo) [Example 93, threo-4-methoxy-5-(2-methylphenylhydroxymethyl)-2(5H)-furanone], under setting [1], the responders at 100 mg/kg is 37.5%.

Take `COC1=CC(=O)O[C@H]1[C@H](O)c1c(F)cccc1Cl` (relative stereo) [Example 102, threo-5-(2-chloro-6-fluorophenylhydroxymethyl)-4-methoxy-2(5H)-furanone]: the responders at 100 mg/kg under setting [1] was determined as 62.5%.

In the case of `COC1=CC(=O)O[C@H]1[C@H](OC)c1ccccc1F` (relative stereo) [Example 123, threo-4-methoxy-5-[methoxy-(2-fluorophenyl)-methyl]-2(5H)-furanone], the responders at 50 mg/kg under setting [2] is 100%.

`COC1=CC(=O)O[C@H]1[C@H](O)c1ccc(Cl)cc1C(F)(F)F` (relative stereo) [Example 87, threo-5-[(4-chloro-2-trifluoromethylphenyl)-hydroxymethyl]-4-methoxy-2(5H)-furanone]: the responders at 100 mg/kg under setting [1] worked out at 40%.

For `COC1=CC(=O)O[C@H]1[C@H](O)c1c(Cl)cccc1Cl` (relative stereo) [Example 103, threo-5-(2,6-dichlorophenylhydroxymethiyl)-4-methoxy-2(5H)-furanone], the responders at 100 mg/kg under setting [1] came out at 100%. The ED50 (Mus musculus) is 37 mg/kg.

As to “threo-4-methoxy-5-(α-hydroxy-β-phenylethyl)-2(5H)-furanone [Example 104]”, for the setting “100 mg/kg p.o., 1 hr., % of animals protected 100% against the extensor spasm”, the “protective action after 1 hr. (MES test)” value worked out at 37.5%.

As for `COCC(OC)O[C@H](c1ccccc1Cl)[C@@H]1OC(=O)C=C1OC` (stereo partly drawn) [Example 121, threo-5-[1',2'-dimethoxyethoxy-(2-chlorophenyl)-methyl]-4-methoxy-2(5H)-furanone], the responders at 50 mg/kg under setting [2] amounted to 70%.

For `COC1=CC(=O)O[C@H]1[C@H](O)c1ccc(Br)cc1Cl` (relative stereo) [Example 88, threo-5-[(4-bromo-2-chlorophenyl)-hydroxymethyl]-4-methoxy-2(5H)-furanone], under setting [1], the responders at 100 mg/kg worked out at 80%.

With `COC1=CC(=O)O[C@H]1[C@H](O)c1ccccc1F` (relative stereo) [Example 70, threo-5-(2-fluorophenylhydroxymethyl)-4-methoxy-2(5H)-furanone], the responders at 100 mg/kg under setting [1] turned out to be 100%. Further, the ED50 (Mus musculus) was 22 mg/kg.

In the case of `COC1=CC(=O)O[C@H]1[C@H](O)c1ccc(C(F)(F)F)cc1` (relative stereo) [Example 73, threo-4-methoxy-5-(4-trifluoromethylphenylhydroxymethyl)-2(5H)-furanone], the responders at 100 mg/kg under setting [1] amounted to 60%.

Turning to `COC1=CC(=O)O[C@@]1(C)[C@H](O)c1ccccc1Cl` (relative stereo) [Example 89, threo-5-(2-Chlorophenylhydroxymethyl)-4-methoxy-5-methyl-2(5H)-furanone], the responders at 100 mg/kg under setting [1] came to 100%.

Consider `COCO[C@H](c1ccc(Cl)cc1Cl)[C@@H]1OC(=O)C=C1OC` (relative stereo) [Example 114, threo-4-methoxy-5-[methoxymethoxy-(2,4-dichlorophenyl)-methyl]-2(5H)-furanone], for which the responders at 100 mg/kg under setting [1] amounted to 10%.

Turning to `COCCOCO[C@H](c1ccccc1Cl)[C@@H]1OC(=O)C=C1OC` (relative stereo) [Example 108, threo-4-Methoxy-5-[methoxyethoxymethoxy-(2-chlorophenyl)-methyl]-2(5H)-furanone], the responders at 100 mg/kg under setting [1] is 70%.

For the compound `COC1=CC(=O)O[C@H]1[C@H](O)c1ccc(Cl)cc1` (relative stereo) [Example 67, threo-5-(4-chlorophenylhydroxymethyl)-4-methoxy-2(5H)-furanone], the responders at 100 mg/kg under setting [1] was 75%. For the same compound, the ED50 (Mus musculus) is 73.5 mg/kg.
